Test results: paper PMC8851638 (ACS Omega, 2022)
Values after ≈ are worked out from the molar mass of the structure shown. Values joined by “and” are separate entries in the source; they are usually repeats but may differ in a detail not shown here. Equal values may be shown once.

Columns and labels:
[1] = tested on: C. albicans200 (MDR00200); test: Agar well-diffusion antimicrobial sensitivity assay; format: cell-based, Candida albicans; details: Candida albicans, read-out: Inhibition Zone (IZ)
[2] = tested on: C. albicans100; test: Checkerboard combination assay with Ketoconazole; format: cell-based, Candida albicans
[3] = tested on: B. subtilis; test: Single-step resistance selection; format: cell-based; details: 4 × MIC, 48 h
[4] = tested on: C. albicans100; test: Single-step resistance selection; format: cell-based, Candida albicans; details: 4 × MIC, 48 h
[5] = tested on: A. baumannii (MDR00521); test: MIC and MBC by broth microdilution; format: cell-based; details: ratio in parentheses
[6] = tested on: S. epidermidis (MDR00223); test: Agar well-diffusion antimicrobial sensitivity assay; format: cell-based, Staphylococcus epidermidis; details: Staphylococcus epidermidis, read-out: Inhibition Zone (IZ)
[7] = tested on: S. epidermidis biofilm; test: Staphylococcus biofilm mass reduction; format: cell-based; details: at their MIC
[8] = tested on: S. aureus (MDR00231); test: MIC and MBC by broth microdilution; format: cell-based, Staphylococcus aureus
[9] = tested on: C. albicans200; test: Checkerboard combination assay with Ketoconazole; format: cell-based, Candida albicans
[10] = tested on: C. albicans200 (MDR00200); test: MIC and MFC by broth microdilution; format: cell-based, Candida albicans
[11] = tested on: E. coli (MDR00501); test: Agar well-diffusion antimicrobial sensitivity assay; format: cell-based; details: Escherichia coli, read-out: Inhibition Zone (IZ)
[12] = tested on: B. subtilis (MDR00423); test: MIC and MBC by broth microdilution; format: cell-based; details: B. subtilis; ratio in parentheses
[13] = tested on: K. pneumoniae (MDR00244); test: MIC and MBC by broth microdilution; format: cell-based; details: ratio in parentheses
[14] = tested on: S. aureus (MDR00231); test: Agar well-diffusion antimicrobial sensitivity assay; format: cell-based, Staphylococcus aureus; details: Staphylococcus aureus, read-out: Inhibition Zone (IZ)
[15] = tested on: clinical pathogenic isolates; test: Single-step resistance selection, whole panel; format: cell-based; details: 4 × MIC
[16] = tested on: BNL: mouse normal liver cells; test: In vitro cytotoxicity on normal cell line; format: cell-based
[17] = In vitro cytotoxicity on normal cell line; format: cell-based, mouse; details: mouse, BNL normal liver cells
[18] = tested on: RBCs; test: Hemolytic assay; format: cell-based; details: human RBCs; compounds 1.0 mg/mL; Triton X-100 0.1% v/v; 37 °C, 35 min
[19] = tested on: S. epidermidis (MDR00223); test: MIC and MBC by broth microdilution; format: cell-based, Staphylococcus epidermidis
[20] = tested on: K. pneumoniae; test: Single-step resistance selection; format: cell-based; details: 4 × MIC, 48 h
[21] = biological target: E. coli DNA gyrase (Escherichia coli, UniProt P0AES4+P0AES6); test: DNA gyrase inhibition; format: biochemical
E. coli DNA gyrase, sequence (P0AES4 whole entry, one chain of several): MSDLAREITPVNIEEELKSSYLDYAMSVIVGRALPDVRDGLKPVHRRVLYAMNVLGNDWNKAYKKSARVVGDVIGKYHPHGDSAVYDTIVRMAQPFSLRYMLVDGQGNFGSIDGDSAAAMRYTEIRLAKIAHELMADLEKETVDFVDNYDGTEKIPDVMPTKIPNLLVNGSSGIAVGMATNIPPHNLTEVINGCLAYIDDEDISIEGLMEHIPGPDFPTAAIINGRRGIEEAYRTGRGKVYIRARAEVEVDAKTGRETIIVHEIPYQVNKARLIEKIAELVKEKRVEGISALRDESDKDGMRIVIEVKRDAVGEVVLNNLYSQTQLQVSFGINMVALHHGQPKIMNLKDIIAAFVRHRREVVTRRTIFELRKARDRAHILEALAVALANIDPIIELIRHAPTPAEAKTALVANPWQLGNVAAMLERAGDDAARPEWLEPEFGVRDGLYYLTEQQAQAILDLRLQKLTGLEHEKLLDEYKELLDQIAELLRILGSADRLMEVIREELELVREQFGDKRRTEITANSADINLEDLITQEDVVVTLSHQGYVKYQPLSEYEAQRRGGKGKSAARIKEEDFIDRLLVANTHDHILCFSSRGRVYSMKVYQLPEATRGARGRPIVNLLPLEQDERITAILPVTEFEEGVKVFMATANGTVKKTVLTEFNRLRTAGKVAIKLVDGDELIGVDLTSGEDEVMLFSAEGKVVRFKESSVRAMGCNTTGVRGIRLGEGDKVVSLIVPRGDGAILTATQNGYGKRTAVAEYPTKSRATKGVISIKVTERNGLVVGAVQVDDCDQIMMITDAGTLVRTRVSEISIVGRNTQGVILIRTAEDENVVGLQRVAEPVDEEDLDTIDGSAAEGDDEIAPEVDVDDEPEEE

[22] = tested on: H9C2: rat heart/myocardium; test: In vitro cytotoxicity on normal cell line; format: cell-based
[23] = In vitro cytotoxicity on normal cell line; format: cell-based, rat; details: rat, H9C2 heart/myocardium cells
[24] = tested on: E. coli; test: Single-step resistance selection; format: cell-based; details: 4 × MIC, 48 h
[25] = tested on: E. coli (MDR00501); test: MIC and MBC by broth microdilution; format: cell-based
[26] = tested on: A. baumannii; test: Single-step resistance selection; format: cell-based; details: 4 × MIC, 48 h
[27] = tested on: C. albicans200; test: Single-step resistance selection; format: cell-based, Candida albicans; details: 4 × MIC, 48 h
[28] = tested on: S. aureus; test: Single-step resistance selection; format: cell-based, Staphylococcus aureus; details: 4 × MIC, 48 h
[29] = tested on: C. albicans100 (MDR00100); test: MIC and MFC by broth microdilution; format: cell-based, Candida albicans
[30] = tested on: Vero: green monkey kidney; test: In vitro cytotoxicity on normal cell line; format: cell-based
[31] = In vitro cytotoxicity on normal cell line; format: cell-based, green monkey; details: green monkey, Vero kidney cells
[32] = tested on: S. epidermidis; test: Single-step resistance selection; format: cell-based, Staphylococcus epidermidis; details: 4 × MIC, 48 h
[33] = tested on: S. aureus biofilm; test: Staphylococcus biofilm mass reduction; format: cell-based; details: at their MIC
[34] = tested on: Gram-negative bacteria; test: MIC broth microdilution, Gram-negative panel; format: cell-based; details: Gram-negative bacteria used in this study
[35] = biological target: T1, dihydrofolate reductase (DHFR) (Homo sapiens, UniProt P00374); test: DHFR inhibition; format: biochemical
T1 sequence (P00374 1-187): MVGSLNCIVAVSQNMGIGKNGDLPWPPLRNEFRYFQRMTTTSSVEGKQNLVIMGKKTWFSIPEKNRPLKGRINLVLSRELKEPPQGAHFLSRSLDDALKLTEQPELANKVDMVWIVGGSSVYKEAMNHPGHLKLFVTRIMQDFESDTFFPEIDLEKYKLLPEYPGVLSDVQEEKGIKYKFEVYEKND

[36] = tested on: A. baumannii; test: Checkerboard combination assay with Ciprofloxacin; format: cell-based
[37] = tested on: C. albicans100 (MDR00100); test: Agar well-diffusion antimicrobial sensitivity assay; format: cell-based, Candida albicans; details: Candida albicans, read-out: Inhibition Zone (IZ)
[38] = Candida albicans, read-out: MIC (mean ± SEM)

Cc1c(NN=C(C#N)C2=NC(=O)CS2)c(=O)n(-c2ccccc2)n1C [Compound 13, N-(1,5-Dimethyl-3-oxo-2-phenyl-2,3-dihydro-1H-pyrazol-4-yl)-4-oxo-4,5-dihydrothiazole-2-carbohydrazonoyl cyanide]
zone of inhibition at 100000 µg/mL [1]: 28 ± 0.36 mm | combination effect [2]: S (S: synergism) | fractional inhibitory concentration index (FICI) [2]: 0.5 | Single-step resistance frequency (mutation frequency) [3]: 1.66 × 10^–9 | Single-step resistance frequency (mutation frequency) [4]: 2.92 × 10^–9 | MBC/MIC [5]: 0.5 | zone of inhibition at 100000 µg/mL [6]: 25 ± 0.45 mm | reduction of biofilm formation [7]: 47.8% | MBC/MIC ([8]; S. aureus, ratio in parentheses): 1 | MIC ([8]; Staphylococcus aureus, read-out: MIC (mean ± SEM)): 0.98 ± 0.2 µg/mL (≈ 2.77 µM) | combination effect [9]: S (S: synergism) | fractional inhibitory concentration index (FICI) [9]: 0.5 | MFC/MIC ([10]; C. albicans200, ratio in parentheses): 2 | MIC [10, 38]: 0.98 ± 0.3 µg/mL (≈ 2.77 µM) | zone of inhibition at 100000 µg/mL [11]: 28 ± 0.55 mm | MBC/MIC [12]: 2 | MBC/MIC [13]: 2 | zone of inhibition at 100000 µg/mL [14]: 27 ± 0.82 mm | mutation frequency, range over panel [15]: 2.71 × 10^–7 to 2.92 × 10^–9 | Selectivity index against DHFR ([16]; IC50 of BNL / IC50 of DHFR): 29.78 | Selectivity index against DNA gyrase ([16]; IC50 of BNL / IC50 of DNA gyrase): 2.51 | IC50 at 72 h [17]: 79.5 ± 1.67 µM | %lysis of RBCs [18]: 15.22% and 15.22 ± 0.43% | MBC/MIC ([19]; S. epidermidis, ratio in parentheses): 1 | MIC ([19]; Staphylococcus epidermidis, read-out: MIC (mean ± SEM)): 0.99 ± 0.3 µg/mL (≈ 2.79 µM) | Single-step resistance frequency (mutation frequency) [20]: 3.22 × 10^–8 | IC50 [21]: 31.64 ± 0.17 µM | Selectivity index against DHFR ([22]; IC50 of H9C2 / IC50 of DHFR): 23.06 | Selectivity index against DNA gyrase ([22]; IC50 of H9C2 / IC50 of DNA gyrase): 1.94 | IC50 at 72 h [23]: 61.6 ± 1.64 µM | Single-step resistance frequency (mutation frequency) [24]: 2.90 × 10^–8 | MBC/MIC ([25]; E. coli, ratio in parentheses): 0.5 | MIC ([25]; Escherichia coli, read-out: MIC (mean ± SEM)): 0.49 ± 0.2 µg/mL (≈ 1.38 µM) | Single-step resistance frequency (mutation frequency) [26]: 2.71 × 10^–7 | Single-step resistance frequency (mutation frequency) [27]: 3.20 × 10^–8 | Single-step resistance frequency (mutation frequency) [28]: 2.73 × 10^–8 | MFC/MIC ([29]; C. albicans100, ratio in parentheses): 2 | MIC [29, 38]: 0.99 ± 0.2 µg/mL (≈ 2.79 µM) | Selectivity index against DHFR ([30]; IC50 of Vero / IC50 of DHFR): 28.02 | Selectivity index against DNA gyrase ([30]; IC50 of Vero / IC50 of DNA gyrase): 2.36 | IC50 at 72 h [31]: 74.8 ± 2.12 µM | Single-step resistance frequency (mutation frequency) [32]: 4.15 × 10^–8 | reduction of biofilm formation [33]: 51.2% | MIC, range over panel [34]: 0.43 to 0.98 µg/mL | IC50 [35]: 2670 ± 140 nM | combination effect [36]: S (S: synergism) | fractional inhibitory concentration index (FICI) [36]: 0.5 | zone of inhibition at 100000 µg/mL [37]: 29 ± 0.25 mm
